Results published in the supplement of paper PMC4862054.

Columns and labels:
MDA-MB-468 [1] = assay: drug sensitivity score (DSS), CellTiter-Blue viability (DSS (AUC-based score)); higher = stronger viability inhibition; extreme values may be limits of the assay; settings: incubation time: 72 h
Outline: (§1)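 Into 384-well plates carrying compound in a 5- or 9-concentration series went 20 µl of breast cancer cell suspension, followed by 72 h of incubation. Adding 2.5 µl CellTiter-Blue per well and incubating 2 h at 37 °C preceded fluorescence measurement at 560/590 nm. After normalisation of each plate to 0.1 % DMSO and a positive kill control, dose-response curves were fitted and the area beneath them taken as the drug sensitivity score.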

CAL-148 [2] = assay: as above; settings: incubation time: 72 h
Outline: as §1

BT-474 [3] = assay: normalised viability (% of control), CellTiter-Blue; higher = more viable cells (100 = DMSO, 0 = benzethonium chloride kill control); settings: 1 nM; incubation time: 72 h
Procedure: (§2)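 DSRT, CellTiter-Blue viability, 72 h incubation. Signal is normalised to DMSO and benzethonium chloride controls. Value is the normalised response at dose 1.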

CAL-85-1 [4] = assay: as above; settings: 1 nM; incubation time: 72 h
Procedure: as §2

HCC1599 = assay: normalised viability (% of control), CellTiter-Blue; higher = more viable cells (about 100 = DMSO control); settings: incubation time: 72 h
Outline: (§3)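 Compound dissolved in 5 µl medium was pre-loaded into 384-well plates, and breast cancer cell lines in 20 µl suspension were seeded on top and incubated 72 h. After adding 2.5 µl CellTiter-Blue reagent for 2 h at 37 °C, fluorescence was read at 560/590 nm. Plates were normalised to vehicle (100) and a positive kill control (0), with Z'-factor quality control. Each value is normalised viability at a single listed concentration from the series.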

BT-474 [5] = assay: as above; settings: incubation time: 72 h
Outline: as §3

Hs578T = assay: as above; settings: incubation time: 72 h
Outline: as §3

CAL-85-1 [6] = assay: as above; settings: incubation time: 72 h
Outline: as §3

CAL-51 = assay: as above; settings: incubation time: 72 h
Outline: as §3

MDA-MB-436 = assay: as above; settings: incubation time: 72 h
Outline: as §3

BT-549 = assay: as above; settings: incubation time: 72 h
Outline: as §3

HDQ-P1 = assay: as above; settings: incubation time: 72 h
Outline: as §3

HCC1143 = assay: as above; settings: incubation time: 72 h
Outline: as §3

SK-BR-3 = assay: as above; settings: incubation time: 72 h
Outline: as §3

MFM-223 = assay: as above; settings: incubation time: 72 h
Outline: as §3

MDA-MB-468 [7] = assay: as above; settings: incubation time: 72 h
Outline: as §3

HCC1937 = assay: as above; settings: incubation time: 72 h
Outline: as §3

CAL-148 [8] = assay: as above; settings: incubation time: 72 h
Outline: as §3

MDA-MB-231 = assay: as above; settings: incubation time: 72 h
Outline: as §3

DU-4475 = assay: as above; settings: incubation time: 72 h
Outline: as §3

MDA-MB-453 = assay: as above; settings: incubation time: 72 h
Outline: as §3

CAL-120 = assay: as above; settings: incubation time: 72 h
Outline: as §3

For `COc1cc2nccc(Oc3ccc(NC(=O)Nc4cc(C)on4)c(Cl)c3)c2cc1OC` [Tivozanib], the drug sensitivity score (MDA-MB-468 [1]) was 0, the drug sensitivity score (CAL-148 [2]) was 0 and the normalised viability (BT-474 [3]) was 95%. The normalised viability (CAL-85-1 [4]) was 114%, the normalised viability (HCC1599; 10 nM) was 121% and the normalised viability (HCC1599; 1000 nM) was 98.8%. For the same compound, the normalised viability (HCC1599; 10000 nM) was 79%, the normalised viability (BT-474 [5]; 10 nM) was 111% and the normalised viability (BT-474 [5]; 1000 nM) was 96.4%. The normalised viability (BT-474 [5]; 10000 nM) was 62.8%, the normalised viability (Hs578T; 10 nM) was 109% and the normalised viability (Hs578T; 1000 nM) was 84.8%. It also gave a normalised viability (Hs578T; 10000 nM) of 58.2%, a normalised viability (CAL-85-1 [6]; 3 nM) of 100% and a normalised viability (CAL-85-1 [6]; 30 nM) of 107%. The normalised viability (CAL-85-1 [6]; 100 nM) was 103%, the normalised viability (CAL-51; 3 nM) was 100% and the normalised viability (CAL-51; 30 nM) was 103%. It also gave a normalised viability (CAL-51; 100 nM) of 96.3%, a normalised viability (MDA-MB-436; 10 nM) of 101% and a normalised viability (MDA-MB-436; 1000 nM) of 97.1%. For the same compound, the normalised viability (MDA-MB-436; 10000 nM) was 72.4%, the normalised viability (BT-549; 10 nM) was 82.7% and the normalised viability (BT-549; 1000 nM) was 97.6%. The normalised viability (BT-549; 10000 nM) was 36.5%, the normalised viability (HDQ-P1; 3 nM) was 83.1% and the normalised viability (HDQ-P1; 30 nM) was 85.8%. It also gave a normalised viability (HDQ-P1; 100 nM) of 99.7%, a normalised viability (HCC1143; 10 nM) of 111% and a normalised viability (HCC1143; 1000 nM) of 105%. The normalised viability (HCC1143; 10000 nM) was 94.5%, the normalised viability (SK-BR-3; 10 nM) was 99.7% and the normalised viability (SK-BR-3; 1000 nM) was 99.1%. For the same compound, the normalised viability (SK-BR-3; 10000 nM) was 68.9%, the normalised viability (MFM-223; 10 nM) was 93.6% and the normalised viability (MFM-223; 1000 nM) was 55.3%. For the same compound, the normalised viability (MFM-223; 10000 nM) was 40.2%, the normalised viability (MDA-MB-468 [7]; 10 nM) was 103% and the normalised viability (MDA-MB-468 [7]; 1000 nM) was 111%. It also gave a normalised viability (MDA-MB-468 [7]; 10000 nM) of 51.1%, a normalised viability (HCC1937; 10 nM) of 127% and a normalised viability (HCC1937; 1000 nM) of 88.2%. For the same compound, the normalised viability (HCC1937; 10000 nM) was 63%, the normalised viability (CAL-148 [8]; 3 nM) was 95% and the normalised viability (CAL-148 [8]; 30 nM) was 96.6%. The normalised viability (CAL-148 [8]; 100 nM) was 91.8%, the normalised viability (MDA-MB-231; 10 nM) was 87.8% and the normalised viability (MDA-MB-231; 1000 nM) was 78.1%. It also gave a normalised viability (MDA-MB-231; 10000 nM) of 43.1%, a normalised viability (DU-4475; 3 nM) of 103% and a normalised viability (DU-4475; 30 nM) of 101%. For the same compound, the normalised viability (DU-4475; 100 nM) was 119%, the normalised viability (MDA-MB-453; 3 nM) was 98% and the normalised viability (MDA-MB-453; 30 nM) was 92.9%. For the same compound, the normalised viability (MDA-MB-453; 100 nM) was 96.3%, the normalised viability (CAL-120; 10 nM) was 101% and the normalised viability (CAL-120; 1000 nM) was 98.7%. For the same compound, the normalised viability (CAL-120; 10000 nM) was 47.8%.
Work on `CC1=C(/C=C/C(C)=C/C=C/C(C)=C/C(=O)O)C(C)(C)CCC1` [Tretinoin] yielded a drug sensitivity score (MDA-MB-468 [1]) of 0, a drug sensitivity score (CAL-148 [2]) of 4.65 and a normalised viability (BT-474 [3]) of 91.1%. It also gave a normalised viability (CAL-85-1 [4]) of 87.1%, a normalised viability (HCC1599; 10 nM) of 114% and a normalised viability (HCC1599; 1000 nM) of 77.4%. The normalised viability (HCC1599; 10000 nM) was 84.2%, the normalised viability (BT-474 [5]; 10 nM) was 129% and the normalised viability (BT-474 [5]; 1000 nM) was 111%. For the same compound, the normalised viability (BT-474 [5]; 10000 nM) was 115%, the normalised viability (Hs578T; 10 nM) was 123% and the normalised viability (Hs578T; 1000 nM) was 105%. It also gave a normalised viability (Hs578T; 10000 nM) of 100%, a normalised viability (CAL-85-1 [6]; 3 nM) of 85.3% and a normalised viability (CAL-85-1 [6]; 30 nM) of 92.2%. The normalised viability (CAL-85-1 [6]; 100 nM) was 95.7%, the normalised viability (CAL-51; 3 nM) was 106% and the normalised viability (CAL-51; 30 nM) was 94.6%. For the same compound, the normalised viability (CAL-51; 100 nM) was 99.6%, the normalised viability (MDA-MB-436; 10 nM) was 97.9% and the normalised viability (MDA-MB-436; 1000 nM) was 81.6%. For the same compound, the normalised viability (MDA-MB-436; 10000 nM) was 95.5%, the normalised viability (BT-549; 10 nM) was 87.5% and the normalised viability (BT-549; 1000 nM) was 100%. The normalised viability (BT-549; 10000 nM) was 106%, the normalised viability (HDQ-P1; 3 nM) was 120% and the normalised viability (HDQ-P1; 30 nM) was 122%. It also gave a normalised viability (HDQ-P1; 100 nM) of 107%, a normalised viability (HCC1143; 10 nM) of 86.2% and a normalised viability (HCC1143; 1000 nM) of 89.3%. For the same compound, the normalised viability (HCC1143; 10000 nM) was 88.1%, the normalised viability (SK-BR-3; 10 nM) was 103% and the normalised viability (SK-BR-3; 1000 nM) was 66%. It also gave a normalised viability (SK-BR-3; 10000 nM) of 45%, a normalised viability (MFM-223; 10 nM) of 92.6% and a normalised viability (MFM-223; 1000 nM) of 89.7%. For the same compound, the normalised viability (MFM-223; 10000 nM) was 84.3%, the normalised viability (MDA-MB-468 [7]; 10 nM) was 99% and the normalised viability (MDA-MB-468 [7]; 1000 nM) was 117%. For the same compound, the normalised viability (MDA-MB-468 [7]; 10000 nM) was 113%, the normalised viability (HCC1937; 10 nM) was 106% and the normalised viability (HCC1937; 1000 nM) was 80.6%. It also gave a normalised viability (HCC1937; 10000 nM) of 88.1%, a normalised viability (CAL-148 [8]; 3 nM) of 81.6% and a normalised viability (CAL-148 [8]; 30 nM) of 89.9%. For the same compound, the normalised viability (CAL-148 [8]; 100 nM) was 87.8%, the normalised viability (MDA-MB-231; 10 nM) was 103% and the normalised viability (MDA-MB-231; 1000 nM) was 104%. The normalised viability (MDA-MB-231; 10000 nM) was 109%, the normalised viability (DU-4475; 3 nM) was 78.4% and the normalised viability (DU-4475; 30 nM) was 93.1%. It also gave a normalised viability (DU-4475; 100 nM) of 83.7%, a normalised viability (MDA-MB-453; 3 nM) of 121% and a normalised viability (MDA-MB-453; 30 nM) of 103%. It also gave a normalised viability (MDA-MB-453; 100 nM) of 105%, a normalised viability (CAL-120; 10 nM) of 82.5% and a normalised viability (CAL-120; 1000 nM) of 81.2%. For the same compound, the normalised viability (CAL-120; 10000 nM) was 92.8%.
